The values below are quoted from earlier work in patent publication US20060074243A1, “Hydroxamic acid and amide compounds and their use as protease inhibitors” (Pharmacia Corporation, priority 2002, published 2006).

For the data set, the system named is solid tumor cancers (colorectal, pancreatic, ovarian, and prostate). Conditions: cited from earlier work.

On to `CNC(=O)[C@@H](NC(=O)[C@H](CC(C)C)[C@H](O)C(=O)NO)C(C)(C)C` [Marimastat], for which, where the note is “clinical trials”, the “most common drug-related toxicity” value is “musculoskeletal pain and stiffness”. Also, the “rise of cancer-specific antigens used as surrogate markers for biological activity” value (patients with advanced, rapidly progressive, treatment-refractory solid tumor cancers) was “dose-related reduction”.
